Laboratory results: PubChem BioAssay AID180 (DTP/NCI, 2004)
Where “and” joins values, the source holds several entries; their conditions need not be identical. Identical values can stand only once. Non-standard residues stand in square brackets, D forms with d. Residues, ends and D or L forms follow the SMILES beside them. ξ: configuration not given here. Ac5c = NC1(C(=O)O)CCCC1; ξS = NC(CO)C(=O)O

Tested on: BDF1 mice, Adenocarcinoma 755 s.c., tumor weight T/C
Assay: NCI In Vivo Anticancer Drug Screen. Data for tumor model Adenocarcinoma 755 (subcutaneous) in B6D2F1 (BDF1) mice
Settings: endpoint: mean tumor weight, higher = larger tumour
Procedure, shortened: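 Transplantable tumor implanted; mice dosed with compound or vehicle; survival or tumor size recorded; ratio of treated to vehicle control reported.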

Q: COc1ccc(-c2c(C)c(C(=O)O)nc(-c3ccc4c(O)c(OC)c5c(c4n3)=NC(C)(C)N=5)c2N)c(O)c1OC was tested. Which T/C (dose: 2.5 mg/kg/injection, schedule: Q01DX011 (ip), vehicle: water) did it give?
A: The T/C was 26 % of control.

Q: And the T/C (dose: 2.5 mg/kg/injection, schedule: Q01DX011 (oral), vehicle: water)?
A: Its T/C is 6 % of control.

Q: What about the T/C (dose: 2.5 mg/kg/injection, schedule: Q## X006 (ip), vehicle: water) of the same compound?
A: Its T/C is 59 % of control.

Q: What about the T/C (dose: 2.5 mg/kg/injection, schedule: Q## X006 (oral), vehicle: water) of the same compound?
A: The T/C was 43 % of control.

Q: And the T/C (dose: 2.5 mg/kg/injection, schedule: Q#A X022 (ip), vehicle: water)?
A: Its T/C is 51 % of control.

Q: And the T/C (dose: 5.0 mg/kg/injection, schedule: Q01DX005 (iv), vehicle: water)?
A: The T/C was 58 % of control.

Q: And the T/C (dose: 5.0 mg/kg/injection, schedule: Q01DX006 (ip), vehicle: water)?
A: The T/C was 64 % of control.

Q: What about the T/C (dose: 5.0 mg/kg/injection, schedule: Q01DX011 (im), vehicle: water) of the same compound?
A: Its T/C is 64 % of control.

Q: And the T/C (dose: 5.0 mg/kg/injection, schedule: Q01DX011 (ip), vehicle: water)?
A: Its T/C is 5 % of control.

Q: And the T/C (dose: 5.0 mg/kg/injection, schedule: Q01DX011 (oral), vehicle: water)?
A: The T/C was 2 % of control.

Q: And the T/C (dose: 5.0 mg/kg/injection, schedule: Q01DX011 (sc), vehicle: water)?
A: The T/C was 13 % of control.

Q: What about the T/C (dose: 5.0 mg/kg/injection, schedule: Q## X006 (ip), vehicle: water) of the same compound?
A: Its T/C is 57 % of control.

Q: What about the T/C (dose: 5.0 mg/kg/injection, schedule: Q## X006 (oral), vehicle: water) of the same compound?
A: The T/C was 79 % of control.

Q: And the T/C (dose: 5.0 mg/kg/injection, schedule: Q#A X022 (ip), vehicle: water)?
A: Its T/C is 21 % of control.

Q: What about the T/C (dose: 7.5 mg/kg/injection, schedule: Q01DX006 (ip), vehicle: water) of the same compound?
A: Its T/C is 63 % of control.

Q: What about the T/C (dose: 7.5 mg/kg/injection, schedule: Q#A X022 (ip), vehicle: water) of the same compound?
A: The T/C was 9 % of control.

Q: And the T/C (dose: 8.0 mg/kg/injection, schedule: Q01DX011 (ip), vehicle: water)?
A: The T/C was 50 % of control.

Q: And the T/C (dose: 10.0 mg/kg/injection, schedule: Q01DX005 (iv), vehicle: water)?
A: The T/C was 26 % of control.

Q: And the T/C (dose: 10.0 mg/kg/injection, schedule: Q01DX006 (ip), vehicle: water)?
A: The T/C was 28 % of control.

Q: And the T/C (dose: 10.0 mg/kg/injection, schedule: Q01DX011 (im), vehicle: water)?
A: Its T/C is 13 % of control.

Q: And the T/C (dose: 10.0 mg/kg/injection, schedule: Q01DX011 (sc), vehicle: water)?
A: The T/C was 15 % of control.

Q: And the T/C (dose: 10.0 mg/kg/injection, schedule: Q## X006 (ip), vehicle: water)?
A: The T/C was 19 % of control.

Q: What about the T/C (dose: 10.0 mg/kg/injection, schedule: Q## X006 (oral), vehicle: water) of the same compound?
A: The T/C was 44 % of control.

Q: And the T/C (dose: 12.0 mg/kg/injection, schedule: Q03DX004 (ip), vehicle: water)?
A: Its T/C is 62 % of control.

Q: And the T/C (dose: 13.0 mg/kg/injection, schedule: Q01DX011 (ip), vehicle: water)?
A: Its T/C is 10 % of control.

Q: And the T/C (dose: 15.0 mg/kg/injection, schedule: Q01DX005 (iv), vehicle: water)?
A: Its T/C is 6 % of control.

Q: And the T/C (dose: 15.0 mg/kg/injection, schedule: Q01DX011 (im), vehicle: water)?
A: Its T/C is 10 % of control.

Q: And the T/C (dose: 15.0 mg/kg/injection, schedule: Q01DX011 (sc), vehicle: water)?
A: Its T/C is 4 % of control.

Q: What about the T/C (dose: 18.0 mg/kg/injection, schedule: Q03DX004 (ip), vehicle: water) of the same compound?
A: The T/C was 38 % of control.

Q: And the T/C (dose: 20.0 mg/kg/injection, schedule: Q01DX011 (ip), vehicle: water)?
A: The T/C was 6 % of control.

Q: What about the T/C (dose: 20.0 mg/kg/injection, schedule: Q## X006 (ip), vehicle: water) of the same compound?
A: Its T/C is 39 % of control.

Q: And the T/C (dose: 20.0 mg/kg/injection, schedule: Q## X006 (oral), vehicle: water)?
A: Its T/C is 20 % of control.

Q: And the T/C (dose: 22.0 mg/kg/injection, schedule: Q07DX002 (ip), vehicle: water)?
A: Its T/C is 48 % of control.

Q: And the T/C (dose: 22.5 mg/kg/injection, schedule: Q01DX005 (iv), vehicle: water)?
A: The T/C was 2 % of control.

Q: What about the T/C (dose: 22.5 mg/kg/injection, schedule: Q01DX011 (im), vehicle: water) of the same compound?
A: Its T/C is 1 % of control.

Q: What about the T/C (dose: 27.0 mg/kg/injection, schedule: Q03DX004 (ip), vehicle: water) of the same compound?
A: The T/C was 4 % of control.

Q: And the T/C (dose: 34.0 mg/kg/injection, schedule: Q01DX001 (ip), vehicle: water)?
A: The T/C was 45 % of control and 50 % of control.

Q: What about the T/C (dose: 35.0 mg/kg/injection, schedule: Q07DX002 (ip), vehicle: water) of the same compound?
A: The T/C was 55 % of control.

Q: And the T/C (dose: 44.0 mg/kg/injection, schedule: Q01DX001 (ip), vehicle: water)?
A: Its T/C is 52 % of control and 57 % of control.

Q: What about the T/C (dose: 50.0 mg/kg/injection, schedule: Q07DX002 (ip), vehicle: water) of the same compound?
A: The T/C was 8 % of control.

Q: What about the T/C (dose: 67.0 mg/kg/injection, schedule: Q01DX001 (ip), vehicle: water) of the same compound?
A: Its T/C is 18 % of control.

Q: What does the source list for CC(O)CNc1ncnc2c1cnn2C (configuration not stated)?
A: T/C (dose: 12.5 mg/kg/injection, schedule: Q01DX011 (ip), vehicle: saline): 94 % of control; T/C (dose: 25.0 mg/kg/injection, schedule: Q01DX011 (ip), vehicle: saline): 30 % of control; T/C (dose: 50.0 mg/kg/injection, schedule: Q01DX011 (ip), vehicle: saline): 10 % of control

Q: With CCCCCn1cnc2c(SCc3ccccc3)nc(N)nc21 as the compound, how does the T/C (dose: 37.5 mg/kg/injection, schedule: Q01DX011 (ip), vehicle: saline) read?
A: Its T/C is 68 % of control.

Q: And the T/C (dose: 75.0 mg/kg/injection, schedule: Q01DX011 (ip), vehicle: saline)?
A: Its T/C is 78 % of control.

Q: What about the T/C (dose: 150.0 mg/kg/injection, schedule: Q01DX011 (ip), vehicle: saline) of the same compound?
A: The T/C was 77 % of control.

Q: For NC(CO)C(=O)NC1(C(=O)O)CCCC1 (configuration not stated) (H-[ξS]-[Ac5c]-OH), which T/C (dose: 45.0 mg/kg/injection, schedule: Q01DX011 (ip), vehicle: carboxymethylcellulose (CMC)) is on record?
A: The T/C was 62 % of control.

Q: And the T/C (dose: 90.0 mg/kg/injection, schedule: Q01DX011 (ip), vehicle: carboxymethylcellulose (CMC))?
A: The T/C was 12 % of control.

Q: And the T/C (dose: 180.0 mg/kg/injection, schedule: Q01DX011 (ip), vehicle: carboxymethylcellulose (CMC))?
A: Its T/C is 5 % of control.

Q: What does the source list for CCCCn1cnc2c(SCCc3ccccc3)nc(N)nc21?
A: T/C (dose: 50.0 mg/kg/injection, schedule: Q01DX011 (ip), vehicle: methylcellulose (MC)): 37 % of control; T/C (dose: 100.0 mg/kg/injection, schedule: Q01DX011 (ip), vehicle: methylcellulose (MC)): 42 % of control; T/C (dose: 200.0 mg/kg/injection, schedule: Q01DX011 (ip), vehicle: methylcellulose (MC)): 26 % of control

Q: Which T/C (dose: 150.0 mg/kg/injection, schedule: Q01DX011 (ip), vehicle: carboxymethylcellulose (CMC)) does the source give for CN1Cc2c(ccc3c2OCO3)[C@@H]2[C@H](O)Cc3cc4c(cc3[C@@H]21)OCO4 here?
A: Its T/C is 167 % of control.

Q: What about the T/C (dose: 300.0 mg/kg/injection, schedule: Q01DX011 (ip), vehicle: carboxymethylcellulose (CMC)) of the same compound?
A: The T/C was 51 % of control.

Q: For C[C@]12C=CC(=O)C=C1CC[C@@H]1[C@@H]2[C@@H](O)C[C@@]2(C)[C@H]1CC[C@]2(O)C(=O)COC(=O)CCC1CCCC1, which T/C (dose: 3.1 mg/kg/injection, schedule: Q01DX011 (sc), vehicle: steriod suspending solution) is on record?
A: The T/C was 64 % of control.

Q: And the T/C (dose: 6.25 mg/kg/injection, schedule: Q01DX011 (sc), vehicle: steriod suspending solution)?
A: The T/C was 43 % of control.

Q: And the T/C (dose: 6.25 mg/kg/injection, schedule: Q01DX011 (sc), vehicle: water)?
A: The T/C was 47 % of control.

Q: What about the T/C (dose: 12.5 mg/kg/injection, schedule: Q01DX011 (sc), vehicle: steriod suspending solution) of the same compound?
A: Its T/C is 34 % of control.

Q: What about the T/C (dose: 12.5 mg/kg/injection, schedule: Q01DX011 (sc), vehicle: water) of the same compound?
A: Its T/C is 32 % of control.

Q: And the T/C (dose: 25.0 mg/kg/injection, schedule: Q01DX011 (sc), vehicle: steriod suspending solution)?
A: Its T/C is 22 % of control.

Q: What about the T/C (dose: 25.0 mg/kg/injection, schedule: Q01DX011 (sc), vehicle: water) of the same compound?
A: The T/C was 12 % of control.

Q: What about the T/C (dose: 50.0 mg/kg/injection, schedule: Q01DX011 (sc), vehicle: steriod suspending solution) of the same compound?
A: Its T/C is 13 % of control.

Q: Which results are given for NC(N)=Nc1nc2ccccc2o1?
A: T/C (dose: 55.0 mg/kg/injection, schedule: Q01DX011 (ip), vehicle: methylcellulose (MC)): 109 % of control; T/C (dose: 110.0 mg/kg/injection, schedule: Q01DX011 (ip), vehicle: methylcellulose (MC)): 99 % of control; T/C (dose: 220.0 mg/kg/injection, schedule: Q01DX011 (ip), vehicle: methylcellulose (MC)): 94 % of control; T/C (dose: 330.0 mg/kg/injection, schedule: Q01DX011 (ip), vehicle: methylcellulose (MC)): 66 % of control; T/C (dose: 440.0 mg/kg/injection, schedule: Q01DX011 (ip), vehicle: methylcellulose (MC)): 78 % of control

Q: Which T/C (dose: 1000.0 mg/kg/injection, schedule: Q01DX011 (ip), vehicle: methylcellulose (MC)) does the source give for O=C(NC(CO)C(=O)O)C(Cl)Cl (configuration not stated) here?
A: Its T/C is 93 % of control.

Q: O=S(=O)(NCc1ccccn1)c1ncnc2nc[nH]c12 was tested. Which T/C (dose: 12.0 mg/kg/injection, schedule: Q01DX011 (ip), vehicle: carboxymethylcellulose (CMC)) did it give?
A: Its T/C is 119 % of control.

Q: What about the T/C (dose: 25.0 mg/kg/injection, schedule: Q01DX011 (ip), vehicle: carboxymethylcellulose (CMC)) of the same compound?
A: The T/C was 101 % of control.

Q: And the T/C (dose: 50.0 mg/kg/injection, schedule: Q01DX011 (ip), vehicle: carboxymethylcellulose (CMC))?
A: The T/C was 99 % of control.

Q: What does the source list for NCC(N)=O?
A: T/C (dose: 100.0 mg/kg/injection, schedule: Q01DX011 (ip), vehicle: other): 86 % of control; T/C (dose: 200.0 mg/kg/injection, schedule: Q01DX011 (ip), vehicle: other): 79 % of control; T/C (dose: 400.0 mg/kg/injection, schedule: Q01DX011 (ip), vehicle: other): 56 % of control

Q: O=C1CCC(N2C(=O)c3ccccc3C2=O)C(=O)N1 (configuration not stated) was tested. Which T/C (dose: 250.0 mg/kg/injection, schedule: Q01DX011 (ip), vehicle: carboxymethylcellulose (CMC)) did it give?
A: Its T/C is 48 % of control.

Q: And the T/C (dose: 375.0 mg/kg/injection, schedule: Q01DX011 (ip), vehicle: carboxymethylcellulose (CMC))?
A: The T/C was 56 % of control.
